# Results taken from patent publication US7341991B2, “Inhibitors of amyloid precursor protein processing” (Posco, priority 2004, dated 2008).
# Entries after “also recorded” stand apart in the source; their conditions may differ. Primed or numbered codes have the meaning given here. Where no end group is shown, it is not given here. [ ]: non-standard residue; d: D form. FITC′ = fluorescein isothiocyanate label; Ahx = NCCCCCC(=O)O
# Key:
# [1] = tested on: cleavage of Substrate M by rhBACE (recombinant human β-secretase); assay: Fluorometric (FRET) assay for cleavage of F-Substrate M by β-secretase; format: biochemical; settings: for inhibitory activity of deletion peptides on cleavage of Substrate M: 10 inhibitor/substrate ratio, Substrate M 50 μM; for inhibitory activity group on Substrate M cleavage: tested at various concentrations (FIG. 8); for inhibition of cleavage of Substrate M by β-secretase: in vitro
# Text: This assay system utilizes fluorescence resonance energy transfer (FRET) technology. Substrate M was synthesized with two fluorophores, a fluorescent donor and a proprietary quenching acceptor (purchased from a commercial source, R&D Systems). […] Upon cleavage of substrate by β-secretase, the fluorophore is separated from the quenching group, restoring the full fluorescence yield of donor.
# Substrate labeled with fluorophores will be called F-Substrate M (R&D Systems). Recombinant human β-secretase will be called rhBACE (recombinant human β-site APP cleavage enzyme) (purchased from R&D systems).
# […] Cleavage by rhBACE was detected by reading emitted fluorescence level.
# In this assay system, fluorescence resonance energy transfer (FRET) technology was utilized. […] After pre-incubation, substrate and HC peptide mixture in assay buffer was transferred to FluoroNunc™ 96 well white plate (Nunc, Roskilde, Denmark), and rhBACE1 (70 nM) was added. Time-dependent emission of fluorescence (excitation at 320 nm, emission at 405 nm) was monitored in a Molecular Devices SpectraMax Gemini EM fluorescence reader (CA, USA) for 1 h at 37° C. All assays were carried out in duplicate.
# [2] = tested on: APP processing in HEK293-APP cells; assay: Cell based assay of APP processing (βCTF, Western blot) in HEK293-APP cells; set-up: species or system human
# Method: In the neuronal cells of the brain, APP is processed by α-secretase or β-secretase. To investigate the effects of the inhibitors on the cell, a cell based assay system was developed as described in FIG. 10. C-terminal fragment of APP remaining on the cell membrane was detected by Western blot. The resulting C-terminal fragments, αCTF or βCTF are further processed by γ-secretase. However, if the cells are treated with the γ-secretase inhibitor, this processing is blocked. As a result, αCTF or βCTF accumulate in the cell. If β-secretase inhibitor or APP inhibitor is added, this processing is blocked and βCTF disappears.
# To test APP inhibitor activities in cells, three complementary peptides, c-Sub M, c-Sub MΔC6, and c-Sub MΔN1C1, which show high absorbance in binding test, were added to whole cell extracts of HEK293-APP cells (Lanes 2, 3, and 4 in FIG. 11). In addition, γ-secretase inhibitor and cholesterol were added to the cells to increase βCTF level. Commercially available peptide-based β-secretase inhibitor was included as control (Lane 6, FIG. 11). To detect the N-terminal fragment of β-amyloid which is a product of APP processing, 6E10 antibody was employed. […] Recently, it has been reported that the commercially available peptide-based inhibitor had to be linked to an oligoarginine transporter peptide to have inhibitory activity against cells. Therefore, mimetic approach is adopted to produce cell permeable analogs. (Chang et al. J. Neurochemistry 2004; 89:1409-1416).
# After confirming the ability of the oligo-arginine coupled APP inhibitors to enter the cells, the inhibitors were applied to HEK293-APP cells overexpressing APP to test their inhibitory activities on APP processing. […] This inhibitor started to show significant inhibitory activity beginning from 0.1 μM (lower panel).
# [3] = tested on: Aβ production in HEK 293-APP cells; assay: Measurement of Aβ level in culture media (Aβ1-40 immunoassay); format: cell-based, human; settings: HEK293-APP cells
# Method: Human embryonic kidney (HEK) 293 cells stably transformed with the gene for APP695 (HEK 293-APP) were used for studies on the inhibitory activity of HC peptides. HEK 293-APP cells were generously supplied by Dr. T W Kim (Columbia University, NY, USA). HEK 293-APP cells were cultured in Dulbecco's Modified Eagle's Medium (DMEM) (Invitrogen, CA, USA) with 10% fetal bovine serum (HyClone, UT, USA) and 300 μg/ml of geneticin (Invitrogen, CA, USA) in a humidified atmosphere of 5% CO2, 95% air at 37° C. Cells were subcultured after trypsinization, and the medium was changed every 2-3 days.
# The culture media from the peptide-treated cells (see above) was harvested and centrifuged at 3500×g for 10 min. Amount of Aβ in the supernatant was determined with human Aβ1-40 immunoassay kits (Signal Select™, BioSource, CA, USA) according to the instruction provided by the company.
# [4] = tested on: cleavage of APP by BACE1 (CTFβ) in HEK 293-APP cells; assay: Level of CTFβ in treated cells (immunoblot, 6E10); format: cell-based, human; settings: HEK293-APP cells; for accumulation of cleavage product CTFβ: 9 h
# Method: When the confluency of the cells reached 90%, the cells were washed with PBS once, and HC peptide in serum free DMEM was added to the cells. […] The lysed cells were centrifuged at 12000×g for 10 min at 4° C. The protein in the supernatant was determined by bicinchoninic acid assay (Pierce, IL, USA) [Smith, P. K., Krohn, R. I., Hermanson, G. T., Mallia, A. K., Gartner, F. H., Provenzano, M. D., Fujimoto, E. K., Goeke, N. M., Olson, B. J., and Klenk, D. C. […] After electrophoresis, the proteins in the gel were electrophoretically transferred onto a polyvinylidene difluoride (PVDF) membrane at 100 mA for 80 min. The blotted membrane was fixed with 0.2% glutaraldehyde in PBS for 45 min at RT and treated for 5 min in boiling PBS. CTFβ (the C-terminal fragment of APP generated by BACE1) was detected by treatment of the membrane with 0.5 μg/ml of anti-Aβ N terminal 6E10 antibody (Signetlabs, Inc., MA, USA) followed by incubation with 0.2 μg/ml of anti-mouse antibody coupled with HRP (Amersham Biosciences Ltd. Uppsala, Sweden). The developed film was scanned and the density of CTFβ band was determined by Scion Image Program (Scion Corporation, MD, USA).
# [5] = tested on: Substrate M (SEVNLDAEFR, β-secretase cleavage site of APPsw); assay: Binding of biotin-labeled Substrate M to immobilized complementary (HC) peptides; settings: biotin-labeled Sub M, peptide immobilized on plate
# Method: (§1) Complementary peptides (0.2, 2, 20, and 200 μM) were dissolved in phosphate buffered saline (PBS) (pH 7.4) and fixed to microtiter wells for 5 hr at 37° C. The wells were blocked with blocking buffer (3% BSA/PBS) for 1 hr at 37° C. Either N-terminally biotinylated Substrate W or M (20 μM) in blocking buffer was added and incubated for overnight at 4° C. Streptavidin-horseradish peroxidase in blocking buffer was added to detect resulting bound substrates. The plate was incubated for 2 hr at room temperature (RT), followed by addition of 3, 3′, 5,5′-tetramethyl-benzidine (TMB) as substrate for horseradish peroxidase for color reaction.
# (§2) Reacti-Bind™ maleic anhydride-activated polystyrene plate (Pierce, IL, USA) was coated with 50 μl of HC peptide (200 μM in distilled water) by chemical coupling for 3 h at room temperature (RT) and washed three times with phosphate buffered saline (PBS) containing 0.05% tween 20 (PBST). The plate was blocked with blocking buffer (0.5% gelatin in PBS) for 1 h at RT. After discarding blocking buffer, biotinylated BACE1 substrates (200 μM) in blocking buffer was applied on the plate and incubated for 2.5 h at RT. Each well was washed three times with PBST. The bound biotinylated BACE1 substrates were detected by incubation with streptavidin-horseradish peroxidase (Str-HRP, 125 mU/ml in blocking buffer) for 2 h at RT. Color reaction was carried out with 50 μl of 3,3′,5,5′-Tetramethylbenzidine Liquid Substrate (Sigma-Aldrich, MO, USA). After stopping the reaction by addition of an equal volume of 1 N HCl, absorbance at 450 nm was read in an automated ELISA reader (EL 312e, Bio-Tek Instruments, VT, USA). All assays were carried out in duplicate.
# [6] = target: T1, Substrate W (SEVKMDAEFR, β-secretase cleavage site of wild type APP) (Homo sapiens, UniProt P05067); assay: Binding of biotin-labeled Substrate W to immobilized complementary (HC) peptides; settings: biotin-labeled Sub W, peptide immobilized on plate
# T1 construct: purchased Peptron, Inc; host or cells: chemical synthesis
# Method: as §1
# In particular, for Substrate W, complementary peptides (200 μM) dissolved in phosphate buffered saline (PBS) (pH 7.4) were chemically coupled to Reacti-Bind Maleic Anhydride Activated Polystyrene wells (Pierce Biotechnology, Inc.) for overnight at room temperature (RT). Remaining active sites of the plate were inactivated by adding ethanolamine (1 M) for 1 hr at RT. The wells were blocked with blocking buffer (3% BSA/PBS) for 1 hr at RT. N-terminally biotinylated Substrate W (20 μM) in blocking buffer was added and incubated for 3 hr at RT. Streptavidin-horseradish peroxidase in blocking buffer was added to detect resulting bound substrates. The plate was incubated for 2 hr at room temperature (RT), followed by addition of 3,3′,5,5′-tetramethyl-benzidine (TMB) as substrate for horseradish peroxidase for color reaction.
# as §2
substance,measurement,setting,value
CIQI (CIQI-NH2) [C-Sub MΔN3C3],inhibitory activity of deletion peptides on cleavage of Substrate M,[1],considerable inhibitory activity
same,inhibitory activity group on Substrate M cleavage,[1],medium activity
SEFC [c-Sub MΔC6],inhibitory activity on APP processing,[2]; βCTF,none of the inhibitors tested showed inhibitory activity
"c-Sub MΔN1C1-R9: c-Sub MΔN1C1 coupled with oligo-arginine (9 Arginines), labeled with FITC using a linker AHX ({FITC′-Ahx}-EFCIQIHFRRRRRRRRR)",inhibition of cleavage of Substrate M by β-secretase,[1]; rhBACE1,less inhibitory activity
same,inhibitory activity on APP processing,[2]; βCTF,inhibitory activity in a concentration dependent manner
NH2-(CH2)5-CO—Cys-Ile-Gln-Ile-His-Phe-NH2 ([Ahx]CIQIHF-NH2; N-terminus assumed; SMILES CC[C@H](C)[C@H](NC(=O)[C@H](CCC(N)=O)NC(=O)[C@@H](NC(=O)[C@H](CS)NC(=O)CCCCCN)[C@@H](C)CC)C(=O)N[C@@H](Cc1c[nH]cn1)C(=O)N[C@@H](Cc1ccccc1)C(N)=O) [AHX-c-Sub M ΔN3C1],in vitro inhibitory activity relative to non-modified c-Sub M ΔN3C1,"[1]; f-Sub M, rhBACE1",half
same,reduction of amount of Aβ released,"[3]; 6.25 μM, 9 h",about 70%
same,inhibition of Aβ production / APP processing in the cells,[3],reduced in a concentration dependent manner
same,forms of CTFβ whose accumulation is inhibited,[4],both forms
same,accumulation of cleavage product CTFβ,[4],inhibited accumulation
CIQIHF (CIQIHF-NH2) [c-Sub M ΔN3C1],inhibitory activity of deletion peptides on cleavage of Substrate M,[1],considerable inhibitory activity
same,inhibitory activity for cleavage of f-Sub M by rhBACE1,"[1]; HC peptide 0.5 mM, f-Sub M 10 μM (Table 2)",without sacrificing the inhibitory activity too much
same,inhibition of cleavage of Substrate M by β-secretase,[1]; rhBACE1,maintains much of the original activity of c-Sub M; also recorded: less active than longer HC peptide
same,inhibitory activity relative to c-Sub M ΔN1C1,[1]; substrate concentration 10 μM,about one tenth
same,inhibitory activity group on Substrate M cleavage,[1],less activity
RLHLDLRLKA [Sub M-c],binding to Substrate M,[5],do not bind and not
same,inhibitory activity for cleavage of f-Sub M by rhBACE1,"[1]; HC peptide 1 mM, f-Sub M 10 μM",not
same,inhibition of cleavage of Substrate M by β-secretase,[1]; rhBACE1,do not inhibit cleavage
RLHFYLRLKA [Sub W-c],binding to Substrate W,[6],do not bind
same,inhibition of cleavage of Substrate M by β-secretase,[1]; rhBACE1,do not inhibit cleavage
SEFCIQI (SEFCIQI-NH2) [c-SubM ΔC3],inhibitory activity group on Substrate M cleavage,[1],most active
β-secretase inhibitor IV [reference compound],inhibition of production of Aβ,[3]; 2 μM,about 90%
same,forms of CTFβ whose accumulation is inhibited,[4],only the nonphosphorylated form
same,accumulation of cleavage product CTFβ,[4],inhibited accumulation
"c-Sub M-R9: c-Sub M coupled with oligo-arginine (9 Arginines), labeled with FITC using a linker AHX ({FITC′-Ahx}-SEFCIQIHFRRRRRRRRRR)",inhibition of cleavage of Substrate M by β-secretase,[1]; rhBACE1,no inhibitory activity
same,inhibitory activity on APP processing,[2]; 10 μM,no inhibitory activity
same,inhibitory activity on APP processing,[2]; low concentration,some inhibitory activity
SEFCI (SEFCI-NH2) [c-SubM ΔC5],inhibitory activity group on Substrate M cleavage,[1],medium activity
SEFCIHLHFR (SEFCIHLHFR-NH2) [c-Sub W],binding to Substrate M,[5],weak but significant binding
same,binding to Substrate W,[6],bind
same,inhibitory activity for cleavage of f-Sub M by rhBACE1,"[1]; HC peptide 1 mM, f-Sub M 10 μM",higher inhibitory activity
same,inhibition of cleavage of Substrate M by β-secretase,[1]; rhBACE1,inhibit cleavage
same,inhibitory activity group on Substrate M cleavage,[1],medium activity
SEFCIQIHF [c-Sub M ΔC1],binding to Substrate M,[5],relatively high binding activity
